Data from the kinase profiling compilation of Christmann-Franck et al. (2016).

Experiments:
Experiment in all cases: radiometric filter-binding kinase assay, Kinase HotSpot
Conditions in all cases: compound 0.5 µM; ATP 10 µM
ABL2 (human) = ABL2 (human) (UniProt P42684)
AKT3 (human) = AKT3 (human) (UniProt Q9Y243)
EPHA8 (human) = EPHA8 (human) (UniProt P29322)
LTK (human) = LTK (human) (UniProt P29376)
MET (human) = MET (human) (UniProt P08581)
TBK1 (human) = TBK1 (human) (UniProt Q9UHD2)
ADRBK1 (human) = ADRBK1 (human) (UniProt P25098)
BTK (human) = BTK (human) (UniProt Q06187)
CAMK1 (human) = CAMK1 (human) (UniProt Q14012)
CAMK2A (human) = CAMK2A (human) (UniProt Q9UQM7)
CAMK4 (human) = CAMK4 (human) (UniProt Q16566)
CDK1 CCNA2 (human) = CDK1 CCNA2 (human) (UniProt P06493+P20248)
CDK2 CCNA2 (human) = CDK2 CCNA2 (human) (UniProt P24941+P20248)
CDK2 CCNE1 (human) = CDK2 CCNE1 (human) (UniProt P24941+P24864)
CDK7 CCNH MNAT1 (human) = CDK7 CCNH MNAT1 (human) (UniProt P50613+P51948+P51946)
CHUK (human) = CHUK (human) (UniProt O15111)
CSNK1G2 (human) = CSNK1G2 (human) (UniProt P78368)
DYRK4 (human) = DYRK4 (human) (UniProt Q9NR20)
GSG2 (human) = GSG2 (human) (UniProt Q8TF76)
GSK3A (human) = GSK3A (human) (UniProt P49840)
IKBKB (human) = IKBKB (human) (UniProt O14920)
INSRR (human) = INSRR (human) (UniProt P14616)
MAP3K3 (human) = MAP3K3 (human) (UniProt Q99759)
MAPK10 (human) = MAPK10 (human) (UniProt P53779)
MAPK3 (human) = MAPK3 (human) (UniProt P27361)
MATK (human) = MATK (human) (UniProt P42679)
MST1R (human) = MST1R (human) (UniProt Q04912)
MYLK (human) = MYLK (human) (UniProt Q15746)
MYLK2 (human) = MYLK2 (human) (UniProt Q9H1R3)
NTRK1 (human) = NTRK1 (human) (UniProt P04629)
NTRK3 (human) = NTRK3 (human) (UniProt Q16288)
PAK2 (human) = PAK2 (human) (UniProt Q13177)
PKN1 (human) = PKN1 (human) (UniProt Q16512)
PRKD1 (human) = PRKD1 (human) (UniProt Q15139)
PRKX (human) = PRKX (human) (UniProt P51817)
PTK6 (human) = PTK6 (human) (UniProt Q13882)
RIPK2 (human) = RIPK2 (human) (UniProt O43353)
SRPK1 (human) = SRPK1 (human) (UniProt Q96SB4)
STK25 (human) = STK25 (human) (UniProt O00506)
STK3 (human) = STK3 (human) (UniProt Q13188)
ULK2 (human) = ULK2 (human) (UniProt Q8IYT8)

Sequence of PAK2 (human) (Q13177 whole entry, looked up): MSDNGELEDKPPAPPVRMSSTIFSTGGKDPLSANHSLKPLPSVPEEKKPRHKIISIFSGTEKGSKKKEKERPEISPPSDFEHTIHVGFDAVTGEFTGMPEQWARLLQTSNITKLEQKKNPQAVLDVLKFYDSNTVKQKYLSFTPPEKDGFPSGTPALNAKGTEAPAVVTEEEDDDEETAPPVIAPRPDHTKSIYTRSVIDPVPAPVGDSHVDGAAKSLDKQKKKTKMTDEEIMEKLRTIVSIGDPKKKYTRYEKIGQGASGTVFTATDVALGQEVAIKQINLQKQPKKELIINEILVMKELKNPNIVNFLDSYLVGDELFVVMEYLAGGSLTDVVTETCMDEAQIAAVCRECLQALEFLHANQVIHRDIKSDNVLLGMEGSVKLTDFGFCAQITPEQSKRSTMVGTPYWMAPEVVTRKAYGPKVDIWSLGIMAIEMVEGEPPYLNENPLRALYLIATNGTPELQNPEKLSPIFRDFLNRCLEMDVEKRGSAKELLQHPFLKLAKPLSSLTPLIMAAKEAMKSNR
Sequence of CHUK (human) (O15111 whole entry, looked up): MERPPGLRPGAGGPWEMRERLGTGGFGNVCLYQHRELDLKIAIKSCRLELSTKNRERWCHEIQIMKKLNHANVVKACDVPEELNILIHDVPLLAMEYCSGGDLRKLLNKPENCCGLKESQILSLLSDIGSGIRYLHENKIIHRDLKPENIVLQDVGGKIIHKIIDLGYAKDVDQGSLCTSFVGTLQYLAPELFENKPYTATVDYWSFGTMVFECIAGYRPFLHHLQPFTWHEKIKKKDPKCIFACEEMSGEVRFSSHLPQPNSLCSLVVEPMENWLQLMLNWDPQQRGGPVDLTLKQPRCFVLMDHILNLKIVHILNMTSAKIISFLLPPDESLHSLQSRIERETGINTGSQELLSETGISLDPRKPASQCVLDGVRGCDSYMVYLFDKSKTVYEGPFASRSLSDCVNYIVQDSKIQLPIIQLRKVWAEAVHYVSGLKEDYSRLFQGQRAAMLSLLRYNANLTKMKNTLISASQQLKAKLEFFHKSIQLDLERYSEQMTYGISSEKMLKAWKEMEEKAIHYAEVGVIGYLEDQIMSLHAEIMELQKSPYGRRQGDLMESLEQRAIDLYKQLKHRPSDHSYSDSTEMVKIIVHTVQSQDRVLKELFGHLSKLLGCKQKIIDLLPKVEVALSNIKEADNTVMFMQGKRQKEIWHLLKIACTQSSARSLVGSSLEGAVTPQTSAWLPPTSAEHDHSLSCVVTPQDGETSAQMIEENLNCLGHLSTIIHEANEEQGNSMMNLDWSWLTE
Sequence of CAMK2A (human) (Q9UQM7 whole entry, looked up): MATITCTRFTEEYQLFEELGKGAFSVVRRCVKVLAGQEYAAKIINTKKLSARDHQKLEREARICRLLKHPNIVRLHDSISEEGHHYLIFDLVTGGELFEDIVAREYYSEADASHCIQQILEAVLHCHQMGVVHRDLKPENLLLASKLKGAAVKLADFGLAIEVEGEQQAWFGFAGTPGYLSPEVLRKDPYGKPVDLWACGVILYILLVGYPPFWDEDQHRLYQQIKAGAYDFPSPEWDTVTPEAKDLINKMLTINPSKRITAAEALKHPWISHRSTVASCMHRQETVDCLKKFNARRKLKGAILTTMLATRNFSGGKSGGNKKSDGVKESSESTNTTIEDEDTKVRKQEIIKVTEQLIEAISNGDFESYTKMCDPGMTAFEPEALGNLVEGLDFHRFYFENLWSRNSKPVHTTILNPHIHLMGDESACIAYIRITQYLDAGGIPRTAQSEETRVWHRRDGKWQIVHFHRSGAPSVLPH
Sequence of TBK1 (human) (Q9UHD2 whole entry, looked up): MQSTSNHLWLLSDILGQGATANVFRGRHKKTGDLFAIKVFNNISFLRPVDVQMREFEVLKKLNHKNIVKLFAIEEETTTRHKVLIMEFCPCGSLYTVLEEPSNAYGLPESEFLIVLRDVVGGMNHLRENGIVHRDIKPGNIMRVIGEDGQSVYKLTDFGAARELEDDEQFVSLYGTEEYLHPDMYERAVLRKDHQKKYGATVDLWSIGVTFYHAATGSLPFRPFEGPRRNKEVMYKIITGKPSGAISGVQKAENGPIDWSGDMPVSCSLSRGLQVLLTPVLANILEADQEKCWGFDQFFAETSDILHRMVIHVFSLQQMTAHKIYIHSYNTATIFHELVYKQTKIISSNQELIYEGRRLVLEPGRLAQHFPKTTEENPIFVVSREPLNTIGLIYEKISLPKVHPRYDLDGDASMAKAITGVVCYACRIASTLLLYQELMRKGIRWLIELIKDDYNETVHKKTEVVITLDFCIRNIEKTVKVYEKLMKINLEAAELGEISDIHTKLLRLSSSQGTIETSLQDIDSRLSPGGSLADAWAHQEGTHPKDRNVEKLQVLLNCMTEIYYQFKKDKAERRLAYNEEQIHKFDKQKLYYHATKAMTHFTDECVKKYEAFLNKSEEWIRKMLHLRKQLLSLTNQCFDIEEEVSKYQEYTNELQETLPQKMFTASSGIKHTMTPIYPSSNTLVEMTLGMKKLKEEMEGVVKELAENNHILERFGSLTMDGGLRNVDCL
Sequence of MYLK (human) (Q15746 whole entry, looked up): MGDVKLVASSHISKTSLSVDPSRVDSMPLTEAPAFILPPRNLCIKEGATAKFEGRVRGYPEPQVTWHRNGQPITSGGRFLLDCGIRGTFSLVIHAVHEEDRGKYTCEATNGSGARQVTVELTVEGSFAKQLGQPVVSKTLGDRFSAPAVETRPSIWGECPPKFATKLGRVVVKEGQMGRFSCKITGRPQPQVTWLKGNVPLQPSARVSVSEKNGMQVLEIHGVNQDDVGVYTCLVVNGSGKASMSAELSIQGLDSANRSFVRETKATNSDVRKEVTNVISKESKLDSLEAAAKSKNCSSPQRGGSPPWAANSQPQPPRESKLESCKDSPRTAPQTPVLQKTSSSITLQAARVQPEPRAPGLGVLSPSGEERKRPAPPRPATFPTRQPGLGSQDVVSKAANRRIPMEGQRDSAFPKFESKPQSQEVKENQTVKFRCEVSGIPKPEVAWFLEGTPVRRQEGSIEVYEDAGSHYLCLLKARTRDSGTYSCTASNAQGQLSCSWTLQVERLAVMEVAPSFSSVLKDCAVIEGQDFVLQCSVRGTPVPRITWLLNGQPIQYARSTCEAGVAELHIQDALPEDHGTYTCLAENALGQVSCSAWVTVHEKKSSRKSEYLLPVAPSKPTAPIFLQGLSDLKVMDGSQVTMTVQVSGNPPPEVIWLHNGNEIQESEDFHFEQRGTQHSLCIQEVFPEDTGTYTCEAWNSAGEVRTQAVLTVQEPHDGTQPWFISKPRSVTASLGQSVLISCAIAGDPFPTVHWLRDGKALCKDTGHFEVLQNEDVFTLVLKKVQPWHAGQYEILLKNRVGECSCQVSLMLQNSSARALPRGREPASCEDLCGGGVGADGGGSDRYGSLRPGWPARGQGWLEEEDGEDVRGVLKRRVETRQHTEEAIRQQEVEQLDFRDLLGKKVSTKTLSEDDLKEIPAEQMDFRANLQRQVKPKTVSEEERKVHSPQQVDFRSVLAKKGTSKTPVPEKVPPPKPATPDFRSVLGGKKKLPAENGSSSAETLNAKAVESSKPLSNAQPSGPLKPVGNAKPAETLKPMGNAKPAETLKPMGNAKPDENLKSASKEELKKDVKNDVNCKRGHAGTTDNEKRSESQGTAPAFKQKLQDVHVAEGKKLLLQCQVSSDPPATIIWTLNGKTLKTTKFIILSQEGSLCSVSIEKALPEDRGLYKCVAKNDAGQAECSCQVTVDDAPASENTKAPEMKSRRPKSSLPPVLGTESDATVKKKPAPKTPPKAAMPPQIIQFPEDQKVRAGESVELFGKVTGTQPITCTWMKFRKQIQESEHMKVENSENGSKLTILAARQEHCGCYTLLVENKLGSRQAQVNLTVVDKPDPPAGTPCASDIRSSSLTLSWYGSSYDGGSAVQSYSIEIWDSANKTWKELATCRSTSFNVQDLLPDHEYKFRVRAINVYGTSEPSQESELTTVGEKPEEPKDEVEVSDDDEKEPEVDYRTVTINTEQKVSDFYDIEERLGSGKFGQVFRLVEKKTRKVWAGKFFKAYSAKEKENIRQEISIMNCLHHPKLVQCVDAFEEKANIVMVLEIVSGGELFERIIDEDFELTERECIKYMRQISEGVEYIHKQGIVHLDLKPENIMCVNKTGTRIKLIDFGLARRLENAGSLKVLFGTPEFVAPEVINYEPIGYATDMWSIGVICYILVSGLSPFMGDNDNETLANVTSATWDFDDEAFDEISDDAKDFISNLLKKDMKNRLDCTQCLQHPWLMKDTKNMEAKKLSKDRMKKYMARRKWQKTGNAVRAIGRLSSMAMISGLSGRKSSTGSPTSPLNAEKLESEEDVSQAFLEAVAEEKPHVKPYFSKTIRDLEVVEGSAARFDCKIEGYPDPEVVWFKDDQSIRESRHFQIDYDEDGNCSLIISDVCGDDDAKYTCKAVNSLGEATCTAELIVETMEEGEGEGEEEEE
Sequence of PTK6 (human) (Q13882 whole entry, looked up): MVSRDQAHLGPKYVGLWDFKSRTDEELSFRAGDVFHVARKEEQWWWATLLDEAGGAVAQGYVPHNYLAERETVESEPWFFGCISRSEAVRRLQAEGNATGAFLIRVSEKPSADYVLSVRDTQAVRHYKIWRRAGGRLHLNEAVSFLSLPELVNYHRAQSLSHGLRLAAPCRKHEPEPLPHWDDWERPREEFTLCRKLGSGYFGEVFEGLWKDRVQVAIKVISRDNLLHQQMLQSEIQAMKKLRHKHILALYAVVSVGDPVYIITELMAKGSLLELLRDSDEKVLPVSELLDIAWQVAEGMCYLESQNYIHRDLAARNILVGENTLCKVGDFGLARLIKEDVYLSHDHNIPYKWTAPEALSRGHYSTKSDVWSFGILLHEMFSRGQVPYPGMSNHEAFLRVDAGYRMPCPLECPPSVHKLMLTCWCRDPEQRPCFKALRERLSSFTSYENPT

CN[C@@H]1C[C@H]2O[C@@](C)([C@@H]1OC)n1c3ccccc3c3c4c(c5c6ccccc6n2c5c31)C(=O)NC4
residual activity (ABL2 (human)): 5.25%
residual activity (AKT3 (human)): 2.97%
residual activity (EPHA8 (human)): 25.7%
residual activity (LTK (human)): 0.543%
residual activity (MET (human)): 32.7%
residual activity (TBK1 (human)): -0.455%

COc1cc2c(Nc3ccc(Br)cc3F)ncnc2cc1OCC1CCN(C)CC1
residual activity (ABL2 (human)): 14%
residual activity (ADRBK1 (human)): 92.2%
residual activity (AKT3 (human)): 100%
residual activity (BTK (human)): 17.6%
residual activity (CAMK1 (human)): 81.6%
residual activity (CAMK2A (human)): 99.8%
residual activity (CAMK4 (human)): 101%
residual activity (CDK1 CCNA2 (human)): 100%
residual activity (CDK2 CCNA2 (human)): 94.6%
residual activity (CDK2 CCNE1 (human)): 101%
residual activity (CDK7 CCNH MNAT1 (human)): 102%
residual activity (CHUK (human)): 96.6%
residual activity (CSNK1G2 (human)): 98.5%
residual activity (DYRK4 (human)): 102%
residual activity (EPHA8 (human)): 33.9%
residual activity (GSG2 (human)): 92.6%
residual activity (GSK3A (human)): 103%
residual activity (IKBKB (human)): 87.7%
residual activity (INSRR (human)): 105%
residual activity (LTK (human)): 64.6%
residual activity (MAP3K3 (human)): 102%
residual activity (MAPK10 (human)): 96.9%
residual activity (MAPK3 (human)): 102%
residual activity (MATK (human)): 101%
residual activity (MST1R (human)): 93.6%
residual activity (MYLK (human)): 94.2%
residual activity (MYLK2 (human)): 97.1%
residual activity (NTRK1 (human)): 104%
residual activity (NTRK3 (human)): 72.2%
residual activity (PAK2 (human)): 103%
residual activity (PKN1 (human)): 103%
residual activity (PRKD1 (human)): 99.3%
residual activity (PRKX (human)): 105%
residual activity (PTK6 (human)): 7.28%
residual activity (RIPK2 (human)): 23.4%
residual activity (SRPK1 (human)): 97.9%
residual activity (STK25 (human)): 99%
residual activity (STK3 (human)): 97.5%
residual activity (TBK1 (human)): 99.9%
residual activity (ULK2 (human)): 108%

COc1cc2c(cc1OC)-c1[nH]nc(Nc3cccc(F)c3)c1C2
residual activity (ABL2 (human)): 21.4%
residual activity (ADRBK1 (human)): 93%
residual activity (AKT3 (human)): 96.1%
residual activity (BTK (human)): 40.8%
residual activity (CAMK1 (human)): 98.4%
residual activity (CAMK2A (human)): 95.6%
residual activity (CAMK4 (human)): 106%
residual activity (CDK1 CCNA2 (human)): 92.6%
residual activity (CDK2 CCNA2 (human)): 87.5%
residual activity (CDK2 CCNE1 (human)): 88.6%
residual activity (CDK7 CCNH MNAT1 (human)): 101%
residual activity (CHUK (human)): 91.4%
residual activity (CSNK1G2 (human)): 89.7%
residual activity (DYRK4 (human)): 92.6%
residual activity (EPHA8 (human)): 94.2%
residual activity (GSG2 (human)): 84.8%
residual activity (GSK3A (human)): 101%
residual activity (IKBKB (human)): 98.2%
residual activity (INSRR (human)): 99.2%
residual activity (LTK (human)): 93.3%
residual activity (MAP3K3 (human)): 103%
residual activity (MAPK10 (human)): 102%
residual activity (MAPK3 (human)): 93.7%
residual activity (MATK (human)): 92.1%
residual activity (MET (human)): 97.8%
residual activity (MST1R (human)): 99.1%
residual activity (MYLK (human)): 102%
residual activity (MYLK2 (human)): 86.4%
residual activity (NTRK1 (human)): 98.8%
residual activity (NTRK3 (human)): 72.6%
residual activity (PAK2 (human)): 99.6%
residual activity (PKN1 (human)): 106%
residual activity (PRKD1 (human)): 93.6%
residual activity (PRKX (human)): 103%
residual activity (PTK6 (human)): 81%
residual activity (RIPK2 (human)): 76.3%
residual activity (SRPK1 (human)): 101%
residual activity (STK25 (human)): 103%
residual activity (STK3 (human)): 93%
residual activity (TBK1 (human)): 101%
residual activity (ULK2 (human)): 97.3%

FC(F)(F)c1ccc(/C=C/c2nc(COc3ccc(CCCCn4ccnn4)cc3)co2)cc1
residual activity (ADRBK1 (human)): 113%
residual activity (AKT3 (human)): 96.3%
residual activity (BTK (human)): 98.2%
residual activity (CAMK1 (human)): 105%
residual activity (CAMK2A (human)): 101%
residual activity (CAMK4 (human)): 97.7%
residual activity (CDK1 CCNA2 (human)): 92.6%
residual activity (CDK2 CCNA2 (human)): 87.9%
residual activity (CDK2 CCNE1 (human)): 96.3%
residual activity (CDK7 CCNH MNAT1 (human)): 107%
residual activity (CHUK (human)): 96.8%
residual activity (CSNK1G2 (human)): 96.7%
residual activity (DYRK4 (human)): 101%
residual activity (EPHA8 (human)): 104%
residual activity (GSG2 (human)): 105%
residual activity (GSK3A (human)): 102%
residual activity (IKBKB (human)): 98.6%
residual activity (INSRR (human)): 101%
residual activity (LTK (human)): 104%
residual activity (MAP3K3 (human)): 112%
residual activity (MAPK10 (human)): 94.6%
residual activity (MAPK3 (human)): 100%
residual activity (MATK (human)): 95%
residual activity (MET (human)): 95.1%
residual activity (MST1R (human)): 104%
residual activity (MYLK (human)): 94.8%
residual activity (MYLK2 (human)): 101%
residual activity (NTRK1 (human)): 103%
residual activity (NTRK3 (human)): 98.9%
residual activity (PAK2 (human)): 113%
residual activity (PKN1 (human)): 97%
residual activity (PRKD1 (human)): 93.2%
residual activity (PRKX (human)): 95.3%
residual activity (PTK6 (human)): 97.8%
residual activity (RIPK2 (human)): 109%
residual activity (SRPK1 (human)): 98.1%
residual activity (STK25 (human)): 91.8%
residual activity (STK3 (human)): 95.5%
residual activity (TBK1 (human)): 101%
residual activity (ULK2 (human)): 99.6%
